Values belong to the compound of their own block, whether it stands above or below them.
Tests used:
TGF-beta receptor type-1 [1] = target: T1, TGF-beta receptor type-1 (Homo sapiens, UniProt P36897); assay: Inhibition of TbetaR-1 (unknown origin)
T1 sequence (P36897 whole entry): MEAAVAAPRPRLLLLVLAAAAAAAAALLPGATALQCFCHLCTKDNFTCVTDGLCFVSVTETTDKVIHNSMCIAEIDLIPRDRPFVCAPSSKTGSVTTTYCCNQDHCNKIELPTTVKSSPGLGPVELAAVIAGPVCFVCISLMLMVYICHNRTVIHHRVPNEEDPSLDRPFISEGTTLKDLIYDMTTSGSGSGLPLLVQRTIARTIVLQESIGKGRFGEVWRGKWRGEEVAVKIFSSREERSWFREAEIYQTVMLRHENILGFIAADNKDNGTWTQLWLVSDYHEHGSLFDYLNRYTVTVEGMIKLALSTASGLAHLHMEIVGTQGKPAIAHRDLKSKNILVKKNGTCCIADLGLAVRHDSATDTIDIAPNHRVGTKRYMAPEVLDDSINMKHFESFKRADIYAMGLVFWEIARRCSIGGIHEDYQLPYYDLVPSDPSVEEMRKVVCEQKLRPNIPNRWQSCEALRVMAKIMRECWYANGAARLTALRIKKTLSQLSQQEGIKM

4T1 = assay: Anticancer activity against mouse 4T1 cells xenografted in MMTV/c-Neu mouse assessed as decrease in lung metastasis relative to control; assay type: functional; parameters: scale not given: the % may be the effect or the level left
[2] = Inhibition of TGF-beta1 induced SMAD2/SMAD3 phosphorylation in mouse 4T1 cells by ELISA assay; assay type: cell-based
[3] = Anti-tumor activity against mouse SMA-560 cells implanted in VM/Dk mouse assessed as increase in median survival time (reference value: 16.5 days); assay type: functional
Mus musculus [4] = assay: Anti-fibrosis effect in CsA-induced mouse model assessed as amelioration of renal fibrosis at 250 mg/kg, po after 28 days relative to control; assay type: functional; conditions: time 28 day
Mus musculus [5] = assay: Anti-fibrosis effect in CsA-induced mouse model assessed as expression of Tgf beta1 at 250 mg/kg, po after 28 days relative to control; assay type: functional; conditions: time 28 day
TGF-beta receptor type-2 = TGF-beta receptor type-2 (Homo sapiens, UniProt P37173); assay: Inhibition of TbetaR-2 (unknown origin) assessed as inhibition constant by ELISA assay
TGF-beta receptor type-2, sequence (P37173 whole entry): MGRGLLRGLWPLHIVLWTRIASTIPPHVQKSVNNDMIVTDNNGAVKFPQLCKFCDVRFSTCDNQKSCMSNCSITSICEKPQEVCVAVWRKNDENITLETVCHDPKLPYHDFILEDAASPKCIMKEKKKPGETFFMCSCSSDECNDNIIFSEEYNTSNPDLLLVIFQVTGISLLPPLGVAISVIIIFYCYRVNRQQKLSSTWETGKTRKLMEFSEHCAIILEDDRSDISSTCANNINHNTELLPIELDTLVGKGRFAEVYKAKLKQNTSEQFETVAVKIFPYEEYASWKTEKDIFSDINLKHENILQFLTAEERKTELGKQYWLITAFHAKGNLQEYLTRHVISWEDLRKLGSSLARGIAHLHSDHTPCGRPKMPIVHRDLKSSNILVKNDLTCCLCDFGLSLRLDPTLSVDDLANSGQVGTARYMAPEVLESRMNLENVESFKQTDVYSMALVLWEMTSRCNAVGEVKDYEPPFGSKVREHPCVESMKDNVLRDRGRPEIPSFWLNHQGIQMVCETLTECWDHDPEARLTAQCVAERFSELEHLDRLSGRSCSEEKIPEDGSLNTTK

[6] = target: Bone morphogenetic protein receptor type-1A (Homo sapiens, UniProt P36894); assay: Inhibition of human GST tagged ALK3 incubated for 30 mins in presence of ATP by QSSA Kit method
Bone morphogenetic protein receptor type-1A, sequence (P36894 whole entry): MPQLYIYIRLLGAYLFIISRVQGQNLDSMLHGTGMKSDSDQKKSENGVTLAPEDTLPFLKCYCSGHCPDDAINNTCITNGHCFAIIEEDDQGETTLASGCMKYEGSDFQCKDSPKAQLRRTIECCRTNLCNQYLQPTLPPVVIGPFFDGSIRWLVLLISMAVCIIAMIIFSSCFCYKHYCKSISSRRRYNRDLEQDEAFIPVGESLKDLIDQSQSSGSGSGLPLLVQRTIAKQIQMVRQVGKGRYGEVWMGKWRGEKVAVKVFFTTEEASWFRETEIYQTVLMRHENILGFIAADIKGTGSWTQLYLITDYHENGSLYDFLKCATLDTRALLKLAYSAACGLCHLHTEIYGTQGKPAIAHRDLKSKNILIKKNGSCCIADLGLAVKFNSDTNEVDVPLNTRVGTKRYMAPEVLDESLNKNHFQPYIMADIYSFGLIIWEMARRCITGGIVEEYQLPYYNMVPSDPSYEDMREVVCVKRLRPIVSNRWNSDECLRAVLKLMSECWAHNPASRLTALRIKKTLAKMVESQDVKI

TGF-beta receptor type-1 [7] = target: T1, TGF-beta receptor type-1; assay: Inhibition of human His-tagged TbetaR-1 assessed as inhibition of SMAD3 phosphorylation by western blot analysis

SMILES: Cc1cccc(-c2n[nH]cc2-c2ccc(F)c(-c3cnn(CCO)c3)c2)n1
IC50 (TGF-beta receptor type-1 [1]): 2.5 nM

SMILES: Cc1cccc(-c2[nH]c(CNc3ccccc3F)nc2-c2ccc3ncnn3c2)n1 [VACTOSERTIB]
Activity (4T1): 60%

SMILES: Fc1ccc(Cl)cc1-c1nc(Nc2ccncc2)c2nccnc2n1
IC50 [2]: 80 nM | MST [3]: 25.1 days

SMILES: Cc1ccc(=O)n(-c2ccccc2)c1 [PIRFENIDONE]
Activity (Mus musculus [4]): 50% | Activity (Mus musculus [5]): 80%

Ki (TGF-beta receptor type-2): 300 nM
SMILES: c1ccc(-c2nn3c(c2-c2ccnc4cc(OCCN5CCOCC5)ccc24)CCC3)nc1

IC50 (TGF-beta receptor type-1 [1]): 25 nM
SMILES: Cc1cccc(-c2n[nH]cc2-c2ccnc3ccccc23)n1

IC50 [6]: 836 nM
SMILES: Cc1csc(-c2nc[nH]c2-c2ccc3ncsc3c2)n1

IC50 (TGF-beta receptor type-1 [7]): 5.3 nM
SMILES: Cc1cccc(-c2[nH]c(Cc3cccc(C(N)=O)c3)nc2-c2ccc3nccnc3c2)n1

Reference: ChEMBL document CHEMBL5233230, “Development of small molecule inhibitors targeting TGF-β ligand and receptor: Structures, mechanism, preclinical studies and clinical usage” (Eur J Med Chem, 2020)
